Experimental data taken from publication PMC5715595 (British Journal of Pharmacology, 2017).
Like-named read-outs stand apart in the source and are kept apart here.

Tests used:
in vitro = conditions: human
KV4.3 = target: T1, KV4.3 (Homo sapiens, UniProt Q9UK17); test: Whole-cell patch clamp on KV4.3 (Ito); assay type: cell-based
T1 construct: expressed in transfected cells
T1 sequence (Q9UK17 1-655): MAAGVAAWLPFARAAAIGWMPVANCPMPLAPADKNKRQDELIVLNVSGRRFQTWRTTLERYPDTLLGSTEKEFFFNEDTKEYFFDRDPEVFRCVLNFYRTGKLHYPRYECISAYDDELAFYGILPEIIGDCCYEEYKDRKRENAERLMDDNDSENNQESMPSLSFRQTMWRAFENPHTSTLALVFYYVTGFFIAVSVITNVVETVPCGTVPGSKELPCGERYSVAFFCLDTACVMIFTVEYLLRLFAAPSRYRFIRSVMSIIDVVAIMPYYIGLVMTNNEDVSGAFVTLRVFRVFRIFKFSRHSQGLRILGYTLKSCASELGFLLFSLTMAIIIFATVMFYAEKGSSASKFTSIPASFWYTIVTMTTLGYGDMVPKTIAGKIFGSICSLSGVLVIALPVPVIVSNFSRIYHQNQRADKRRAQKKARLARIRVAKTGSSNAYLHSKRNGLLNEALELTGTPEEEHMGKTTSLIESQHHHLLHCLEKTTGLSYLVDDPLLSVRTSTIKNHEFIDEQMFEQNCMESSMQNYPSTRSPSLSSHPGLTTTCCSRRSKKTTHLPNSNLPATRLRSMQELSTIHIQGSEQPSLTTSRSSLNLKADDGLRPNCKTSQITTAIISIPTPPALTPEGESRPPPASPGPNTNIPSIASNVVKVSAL
Description: (§1) and CiPA Initiative Studies
(§2) =============================================================
(§3) In vitro studies on other ion channels […]
(§4) through NaV1.5, KV4.3, KV7.1/mink, Kir2.1, KV1.5, CaV1.2 and CaV3.2 channels.
(§5) 35-mm dish culture in the conditions mentioned in standard cell culture conditions. Experiments were performed with a cell density enabling isolated cells for patch clamping. Cells were continuously superfused with extracellular medium (1-2 mL∙minute-1) at room temperature.
(§6) D-glucose 10, HEPES 10 and the final pH adjusted to 7.4±0.02 with NaOH for recording NaV1.5, KV4.3, KV7.1/mink, Kir2.1, KV1.5 and CaV3.2 currents. It was (in mM): NaCl 110, KCl 4, BaCl2 20, MgCl2 1, D-glucose 20, HEPES 10 and the final pH adjusted to 7.4 ± 0.02 with NaOH for recording the CaV1.2 current. Compositions of the intracellular solution to fill the pipette are […]
(§7) Composition of intracellular solutions used to fill pipette to record currents through NaV1.5, KV4.3, KV7.1/mink, Kir2.1, KV1.5, CaV1.2 and CaV3.2 channels
(§8) Solution to fill the pipette (mM)
(§9) Creatine-phospho kinase 50 U∙mL-1
(§10) After formation of a Gigaohm seal between the patch electrodes and individual cells (pipette resistance range: 2.0 MΩ - 7.0 MΩ; seal resistance range: > 1 GΩ) the cell membrane across the pipette tip was ruptured to assure electrical access to the cell interior (whole-cell patch-configuration). In case the quality of the seal was poor, the process of seal formation was repeated with a different cell and a new pipette. As soon as a stable seal was established outward tail currents were measured upon pulses described in the Table S2. If current density was judged to be too low for measurement, another cell was recorded. […]
(§11) voltage stimulation protocol indicated in the next table continuously run until the steady-state level of block was reached.
(§12) Stimulation conditions used to record currents through NaV1.5, KV4.3, KV7.1/mink, Kir2.1, KV1.5, CaV1.2 and CaV3.2 channels
(§13) Ion channel Holding potential Pulse / duration Frequency Reference compound […]
(§14) (resting / fast / slow sweeps at one (10 mM) inactivated concentration)

α2B‐adrenoceptor = α2B‐adrenoceptor (Homo sapiens, UniProt P18089); test: Affinity at α2B-adrenoceptor; assay type: binding
CaV1.2 = CaV1.2 (Homo sapiens, UniProt Q13936); test: cell-based
Description: as §1, §2, §3, §4, §5, §6, §7, §8, §9, §10, §11, §12, §13, §14

NaV1.5 = NaV1.5 (Homo sapiens, UniProt Q14524); test: cell-based
NaV1.5, sequence (Q14524 whole entry): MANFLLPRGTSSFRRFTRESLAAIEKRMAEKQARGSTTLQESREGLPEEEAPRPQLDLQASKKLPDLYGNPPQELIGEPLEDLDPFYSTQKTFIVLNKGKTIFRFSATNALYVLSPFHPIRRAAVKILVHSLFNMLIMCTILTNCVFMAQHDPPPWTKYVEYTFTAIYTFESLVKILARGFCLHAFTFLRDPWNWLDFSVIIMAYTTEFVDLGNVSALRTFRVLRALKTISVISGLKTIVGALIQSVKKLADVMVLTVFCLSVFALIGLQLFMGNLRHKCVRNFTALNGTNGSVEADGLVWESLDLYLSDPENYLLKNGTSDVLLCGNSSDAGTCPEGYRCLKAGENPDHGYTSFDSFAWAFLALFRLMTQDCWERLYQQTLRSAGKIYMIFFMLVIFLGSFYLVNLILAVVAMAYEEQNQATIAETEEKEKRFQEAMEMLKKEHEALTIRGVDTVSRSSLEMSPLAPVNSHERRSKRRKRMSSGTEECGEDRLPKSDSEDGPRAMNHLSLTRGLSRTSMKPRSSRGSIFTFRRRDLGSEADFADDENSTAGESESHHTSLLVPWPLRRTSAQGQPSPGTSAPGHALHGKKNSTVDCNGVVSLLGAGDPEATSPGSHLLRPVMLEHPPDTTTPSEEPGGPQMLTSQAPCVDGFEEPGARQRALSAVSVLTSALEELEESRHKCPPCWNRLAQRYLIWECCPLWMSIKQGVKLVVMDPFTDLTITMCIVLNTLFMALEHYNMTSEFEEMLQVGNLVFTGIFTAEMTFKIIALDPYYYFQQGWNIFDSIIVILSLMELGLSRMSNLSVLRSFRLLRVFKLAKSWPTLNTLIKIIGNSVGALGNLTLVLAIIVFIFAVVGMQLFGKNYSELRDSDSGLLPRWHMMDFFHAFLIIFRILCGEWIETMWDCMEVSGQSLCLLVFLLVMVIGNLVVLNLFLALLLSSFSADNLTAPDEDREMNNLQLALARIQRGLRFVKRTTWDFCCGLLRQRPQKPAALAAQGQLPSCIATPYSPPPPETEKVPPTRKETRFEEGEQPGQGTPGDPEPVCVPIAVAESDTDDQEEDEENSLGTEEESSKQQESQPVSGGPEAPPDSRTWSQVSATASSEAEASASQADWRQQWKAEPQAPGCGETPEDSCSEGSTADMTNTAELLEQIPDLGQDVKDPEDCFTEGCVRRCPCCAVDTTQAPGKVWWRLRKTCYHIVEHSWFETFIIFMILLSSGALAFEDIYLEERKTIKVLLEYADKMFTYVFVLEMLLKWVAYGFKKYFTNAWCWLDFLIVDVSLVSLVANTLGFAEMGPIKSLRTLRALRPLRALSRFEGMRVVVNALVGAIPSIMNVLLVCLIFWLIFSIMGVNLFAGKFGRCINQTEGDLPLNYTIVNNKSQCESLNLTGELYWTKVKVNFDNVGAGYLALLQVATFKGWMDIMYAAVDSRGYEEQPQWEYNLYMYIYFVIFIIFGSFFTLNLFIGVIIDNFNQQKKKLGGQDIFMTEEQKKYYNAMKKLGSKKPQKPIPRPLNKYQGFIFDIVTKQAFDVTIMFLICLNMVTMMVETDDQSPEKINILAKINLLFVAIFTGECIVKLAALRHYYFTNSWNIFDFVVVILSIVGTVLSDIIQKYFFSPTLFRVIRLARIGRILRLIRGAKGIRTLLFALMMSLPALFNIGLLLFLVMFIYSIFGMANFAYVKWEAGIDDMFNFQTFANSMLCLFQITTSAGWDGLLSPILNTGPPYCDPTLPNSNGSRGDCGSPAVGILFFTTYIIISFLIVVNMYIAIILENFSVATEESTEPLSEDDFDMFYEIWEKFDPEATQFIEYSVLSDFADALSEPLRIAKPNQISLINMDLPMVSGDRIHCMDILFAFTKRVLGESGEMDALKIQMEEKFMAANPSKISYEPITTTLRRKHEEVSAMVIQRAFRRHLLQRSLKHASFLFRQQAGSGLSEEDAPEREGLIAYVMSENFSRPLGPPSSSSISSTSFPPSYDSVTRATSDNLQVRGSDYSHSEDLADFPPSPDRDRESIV
Description: as §1, §2, §3, §4, §5, §6, §7, §8, §9, §10, §11, §12, §13, §14

[1] = human, 40 mg daily dosing; ref Shah et al., 2016; cited from earlier work
CaV3.2 = target: T2, CaV3.2 (Homo sapiens, UniProt O95180); test: Whole-cell patch clamp on CaV3.2 (ICaT); assay type: cell-based
T2 construct: expressed in transfected cells
T2 sequence (O95180 whole entry): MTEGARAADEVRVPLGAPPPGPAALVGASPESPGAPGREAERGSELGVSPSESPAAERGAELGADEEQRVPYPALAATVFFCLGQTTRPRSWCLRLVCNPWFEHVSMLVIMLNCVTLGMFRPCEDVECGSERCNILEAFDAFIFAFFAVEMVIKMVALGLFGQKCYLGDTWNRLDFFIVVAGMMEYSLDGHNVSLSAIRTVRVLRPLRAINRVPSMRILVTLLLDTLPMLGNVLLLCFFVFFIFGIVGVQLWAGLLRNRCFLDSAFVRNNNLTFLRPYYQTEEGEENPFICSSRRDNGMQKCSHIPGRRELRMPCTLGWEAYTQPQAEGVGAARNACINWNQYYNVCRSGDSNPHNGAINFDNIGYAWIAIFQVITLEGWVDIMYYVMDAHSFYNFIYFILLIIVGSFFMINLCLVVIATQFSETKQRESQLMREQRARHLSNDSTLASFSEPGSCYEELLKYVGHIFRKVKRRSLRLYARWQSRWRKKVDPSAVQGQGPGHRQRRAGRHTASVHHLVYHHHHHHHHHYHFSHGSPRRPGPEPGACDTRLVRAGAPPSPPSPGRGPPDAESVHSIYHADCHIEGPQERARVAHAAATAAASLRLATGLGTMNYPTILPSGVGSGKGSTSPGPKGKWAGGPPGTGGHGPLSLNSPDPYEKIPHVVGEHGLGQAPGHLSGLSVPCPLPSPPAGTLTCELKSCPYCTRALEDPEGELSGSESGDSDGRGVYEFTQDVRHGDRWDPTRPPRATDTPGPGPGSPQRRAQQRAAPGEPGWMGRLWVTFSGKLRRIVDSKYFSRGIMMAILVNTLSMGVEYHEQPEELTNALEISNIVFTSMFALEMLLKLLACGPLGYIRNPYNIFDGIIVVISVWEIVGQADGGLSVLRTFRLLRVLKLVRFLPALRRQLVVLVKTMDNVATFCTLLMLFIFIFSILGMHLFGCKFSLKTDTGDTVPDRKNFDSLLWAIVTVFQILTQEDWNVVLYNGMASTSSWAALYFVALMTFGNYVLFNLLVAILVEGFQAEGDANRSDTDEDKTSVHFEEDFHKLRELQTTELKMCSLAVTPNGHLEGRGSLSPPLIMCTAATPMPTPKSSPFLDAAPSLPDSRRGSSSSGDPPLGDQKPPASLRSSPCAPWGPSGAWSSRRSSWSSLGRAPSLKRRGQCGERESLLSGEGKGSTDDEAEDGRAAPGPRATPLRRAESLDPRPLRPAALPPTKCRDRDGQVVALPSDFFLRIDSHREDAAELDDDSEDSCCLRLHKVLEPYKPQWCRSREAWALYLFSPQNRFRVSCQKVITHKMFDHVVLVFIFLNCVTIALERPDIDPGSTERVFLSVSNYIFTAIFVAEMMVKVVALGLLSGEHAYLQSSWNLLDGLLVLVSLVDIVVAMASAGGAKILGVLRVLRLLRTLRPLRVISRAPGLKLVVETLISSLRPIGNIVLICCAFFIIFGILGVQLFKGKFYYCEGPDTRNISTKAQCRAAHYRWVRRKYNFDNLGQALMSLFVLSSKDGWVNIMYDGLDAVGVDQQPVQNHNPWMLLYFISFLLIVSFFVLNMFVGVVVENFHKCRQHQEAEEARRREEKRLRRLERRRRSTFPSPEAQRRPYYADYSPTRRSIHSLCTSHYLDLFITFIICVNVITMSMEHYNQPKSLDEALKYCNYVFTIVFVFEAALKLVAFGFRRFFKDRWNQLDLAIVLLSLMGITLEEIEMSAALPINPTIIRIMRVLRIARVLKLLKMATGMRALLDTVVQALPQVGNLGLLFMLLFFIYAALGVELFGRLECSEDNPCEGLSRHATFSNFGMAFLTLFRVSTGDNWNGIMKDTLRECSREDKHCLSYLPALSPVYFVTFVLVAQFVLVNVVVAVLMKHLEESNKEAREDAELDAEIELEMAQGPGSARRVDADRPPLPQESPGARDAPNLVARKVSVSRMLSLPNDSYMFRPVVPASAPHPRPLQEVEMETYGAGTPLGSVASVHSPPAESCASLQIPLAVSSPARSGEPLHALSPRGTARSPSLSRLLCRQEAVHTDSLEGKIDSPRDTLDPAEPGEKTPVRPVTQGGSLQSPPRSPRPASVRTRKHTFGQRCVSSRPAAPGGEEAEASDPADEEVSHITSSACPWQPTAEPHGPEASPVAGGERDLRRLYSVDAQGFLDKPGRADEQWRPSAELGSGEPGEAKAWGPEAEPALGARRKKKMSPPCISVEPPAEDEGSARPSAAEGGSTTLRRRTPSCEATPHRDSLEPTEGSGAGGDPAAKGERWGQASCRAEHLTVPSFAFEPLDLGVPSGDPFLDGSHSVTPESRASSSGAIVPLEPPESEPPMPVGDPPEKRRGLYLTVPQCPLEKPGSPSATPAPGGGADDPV
Description: as §1, §2, §3, §4, §5, §6, §7, §8, §9, §10, §11, §12, §13, §14

KV7.1/mink = target: T3, KV7.1/mink (Homo sapiens, UniProt P51787); test: Whole-cell patch clamp on KV7.1/mink (IKs); assay type: cell-based
T3 construct: expressed in transfected cells
Description: as §1, §2, §3, §4, §5, §6, §7, §8, §9, §10, §11, §12, §13, §14

in vivo = test: in vivo; design: species or system rabbit; conditions: female, rabbit, in vivo, iv, read-out: free drug concentration
Description: (§15) All the other experimental groups were 100% female.
(§16) The anaesthetized methoxamine‐sensitized rabbit model of TdP is frequently used to study torsadogenic potential of drugs (Carlsson et al., 1990). Briefly, female animals were pre‐sensitized with i.v. infusion of methoxamine, an α1‐adrenoceptor agonist, delivered at 15 μg·kg^−1·min^−1 (6 mL·h^−1) over 70 min.

[2] = system: methoxamine‐sensitized rabbits; test: in vivo; design: species or system rabbit; conditions: pitolisant alone, 50 and 150 μg·kg^−1·min^−1 over 1 h
Description: as §15, §16

KV1.5 = target: T4, KV1.5 (Homo sapiens, UniProt P22460); test: Whole-cell patch clamp on KV1.5 (IKur); assay type: cell-based
T4 construct: expressed in transfected cells
T4 sequence (P22460 whole entry): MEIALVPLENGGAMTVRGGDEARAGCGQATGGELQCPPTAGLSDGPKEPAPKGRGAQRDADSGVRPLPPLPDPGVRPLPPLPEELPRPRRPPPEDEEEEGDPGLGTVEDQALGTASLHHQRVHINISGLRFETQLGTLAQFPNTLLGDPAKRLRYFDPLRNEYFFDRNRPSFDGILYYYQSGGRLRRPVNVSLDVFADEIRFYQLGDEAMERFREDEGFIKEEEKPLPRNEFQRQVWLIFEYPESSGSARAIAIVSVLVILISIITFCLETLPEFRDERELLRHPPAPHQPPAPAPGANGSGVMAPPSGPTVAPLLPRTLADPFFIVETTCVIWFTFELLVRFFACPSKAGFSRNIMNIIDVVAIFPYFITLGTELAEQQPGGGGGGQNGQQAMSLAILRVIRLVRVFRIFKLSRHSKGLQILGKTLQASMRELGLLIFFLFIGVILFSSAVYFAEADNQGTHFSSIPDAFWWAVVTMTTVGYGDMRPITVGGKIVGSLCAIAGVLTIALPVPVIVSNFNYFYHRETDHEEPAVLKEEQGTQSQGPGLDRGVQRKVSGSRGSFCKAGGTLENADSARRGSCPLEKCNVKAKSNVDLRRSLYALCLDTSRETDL
Description: as §1, §2, §3, §4, §5, §6, §7, §8, §9, §10, §11, §12, §13, §14

Cl.Clc1ccc(CCCOCCCN2CCCCC2)cc1 [pitolisant, 1‐{3‐[3‐(4‐chlorophenyl)propoxy]propyl}piperidine, hydrochloride]
fraction unbound (in vitro): ~0.04
IC50 (KV4.3; KV4.3 Ito, Hill curve fit with Hill coefficient of one, read-out: Fitted IC50): 11.4 µM
IC50 (KV4.3; Pitolisant IC50, KV4.3, Ito): ~10 µM
Ki (α2B‐adrenoceptor): 4.3 µM
IC50 (CaV1.2; Fitted IC50, CaV1.2 ICaL, Hill curve fit with Hill coefficient of one): 9.5 µM
IC50 (CaV1.2; Pitolisant IC50, CaV1.2, ICaL): ~10 µM
IC50 (NaV1.5; Fitted IC50, fit to fast inactivated Nav1.5): 26.3 µM
IC50 (NaV1.5; Fitted IC50, fit to slow inactivated Nav1.5): 26.5 µM
IC50 (NaV1.5; Fitted IC50, mean of fits to fast and slow inactivated Nav1.5, used for the whole Nav1.5 current, Hill coefficient of one): 26.4 µM
IC50 (NaV1.5; Pitolisant IC50, NaV1.5 fast inactivated state, INa): ≥ 10 µM
IC50 (NaV1.5; Pitolisant IC50, NaV1.5 resting state, INa): > 10 µM
IC50 (NaV1.5; Pitolisant IC50, NaV1.5 slow inactivated state, INa): ≥ 10 µM
highest clinically relevant exposure [1]: 72 ng/mL
IC50 (CaV3.2; CaV3.2 ICaT, Hill curve fit with Hill coefficient of one, read-out: Fitted IC50): 25.7 µM
IC50 (CaV3.2; Pitolisant IC50, CaV3.2, ICaT): ≥ 10 µM
Fitted IC50 (KV7.1/mink; KV7.1/mink IKs, Hill curve fit with Hill coefficient of one): No effect
IC50 (KV7.1/mink; KV7.1/mink, IKs): > 10 µM
concentration at 1 h (in vivo; after 50 μg·kg^−1·min^−1 1 h i.v. infusion): ~140 nM
concentration at 1 h (in vivo; after 150 μg·kg^−1·min^−1 1 h i.v. infusion): ~450 nM
effect on QTc interval [2]: devoid of any effect on QTc interval
pro-arrhythmic effect [2]: lacked any pro‐arrhythmic effect
IC50 (KV1.5; KV1.5 IKur, Hill curve fit with Hill coefficient of one, read-out: Fitted IC50): 13.8 µM
IC50 (KV1.5; Pitolisant IC50, KV1.5, IKur): ≥ 10 µM
